For one series, the system named is Panc-1 cells. In words: Wound healing. Format: cell-based. The following applies: 10 μM for 24 h, FBS-free DMEM. As to the method: Cells were seeded in 6-well plates. Monolayer cells were scratched after culturing to obtain at least 95% confluence. Cells were washed with PBS and maintained in FBS-free DMEM and then treated with 10 μM PRTC and PRTC-m for 24 h. Migration distance was observed by microscopy and was measured by ImageJ from three individual experiments.

Series [1] in a line: Circular dichroism (CD) spectroscopy. Format: physicochemical. The following applies: 0.1 mg/mL in deionized water, room temperature. As to the method: All peptides were dissolved in the deionized water at a final concentration of 0.1 mg/mL. The CD spectra were measured by using a 1 nm bandwidth with a 1 nm step resolution from 190 to 260 nm at room temperature (Jasco spectropolarimeter, Japan). Final spectra were obtained from the average of three parallel scans after subtracting a spectrum of deionized water recorded under the same conditions. Each sample was scanned thrice and the averaged spectrum was smoothed. The helicity were calculated by CDNN 2.1 [59], [60].
For orientation: Circular dichroism is widely used to follow secondary structure.

The next series concerns AsPc-1 cells. The series is described as follows: Colony formation. Type of series: cell-based. The note with it: 10 μM, 500 cells per well, 8 days, than the control cells. The method, then:
(§1) Cells were seeded into 6-well plates (500 cells per well) and cultured for 10 days, then washed with PBS and stained with 0.1% crystal violet. The number of colonies was counted by ImageJ and presented as the mean ± standard deviation (SD) from three individual experiments. […]
(§2) tumorigenesis in AsPc-1 and MIA PaCa-2 cells. (A-B) Colony formation of AsPc-1 respectively treated with deionized H2O (Ctrl), 10 μM PRTC, 10 μM PRTC-m and 10 μM PRTC-v. Cells were seeded into 6-well plates (500 cells per well) and cultured for 8 days.(C) CellproliferationassayofAsPc-1cellstreatedwith deionizedwater(Ctrl), 10μMPRTC,10μM PRTC-m and 10 μM PRTC-v.(D-E) Colony formation of MIA PaCa-2 respectively treated with deionized H2O (Ctrl), 10 μM PRTC, PRTC-m and PRTC-v.(F) Cell proliferation assay of MIA PaCa-2cells treatedwith deionizedH 2O(Ctrl),10μMPRTC, PRTC-mandPRTC-v. (G)Tumor volumesofxenografttumors,whichweremeasuredbycalipers. V=( a× b2)/2(V isvolume, a is the length of the tumor,b is the width of the tumor). (H) Cell proliferation assay of […]
(§3) is anormal pancreatic epithelial cell line.
(§4) (1 picture or pasted object on this page, not shown here)

The subject of another series is MIA PaCa-2 cells. In words: Colony formation. Format: cell-based. The note with it: 10 μM, than the control cells. As to the method:
as §1, §2, §3, §4

Series [2] is described as follows: Body weight and toxicity in mice bearing xenograft tumors. Type of series: in vivo, Balb/c nude mice. The note with it: 10 mg/kg intraperitoneal, and HPDE6-C7 cells. The method, then: For the xenograft model, 5×10^6 wild-type Panc-1 cells or CREPT knockout Panc-1 cells were subcutaneously injected into 4-week-old female Balb/c nude mice, which were purchased from Beijing Vital River Laboratory Animal Technology Co., Ltd. Each experimental group consisted of five mice. Mice bearing tumors were randomly divided into two groups and administered via intraperitoneal injection control solvent (0.9% saline) or PRTC (dissolved in 0.9% saline, 10 mg/kg) every 2 days for 4 weeks. The body weight of mice were measured every week after treated with 0.9% saline or PRTC. Tumor volume was measured by using the formula V = (a × b^2)/2 (V is volume, a is the length of the tumor, b is the width of the tumor).

Series [3] has as its target T1, endogenous CREPT protein in AsPc-1 cells (Homo sapiens, UniProt Q9NQG5).
T1 construct: endogenous protein level of CREPT in Panc-1, AsPc-1 and MIA-PaCa-2 cells; endogenous in cells; host or cells: Panc-1, AsPc-1, MIA PaCa-2
T1 sequence (Q9NQG5 1-326): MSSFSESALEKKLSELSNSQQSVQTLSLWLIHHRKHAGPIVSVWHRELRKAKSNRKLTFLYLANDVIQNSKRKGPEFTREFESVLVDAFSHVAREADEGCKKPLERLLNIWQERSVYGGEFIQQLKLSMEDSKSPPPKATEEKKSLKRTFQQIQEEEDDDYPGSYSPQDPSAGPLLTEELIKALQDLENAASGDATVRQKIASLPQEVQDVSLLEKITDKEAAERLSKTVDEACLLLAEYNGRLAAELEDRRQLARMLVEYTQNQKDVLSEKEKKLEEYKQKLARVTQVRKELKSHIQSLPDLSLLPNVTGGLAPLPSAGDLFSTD
In words: Western blot of endogenous CREPT (degradation). Type of series: cell-based. The following applies: 24 h incubation. As to the method:
For exogenous immunoprecipitation assays, HEK293T cells were plated in 60 mm dishes and then transfected with the indicated plasmids. After 24 h, cells were harvested using RIPA buffer (50 mM Tris-HCl pH 8.0, 2 mM EDTA pH 8.0, 150 mM NaCl, 1% NP-40, 0.5% sodium deoxycholate, 0.1% SDS) with mixed protease inhibitors. Cell lysates were incubated with 2 μg of the indicated antibodies and 30 μL of protein A/G-Sepharose beads at 4 °C overnight. Beads were eluted five times with lysis buffer (50 mM Tris-HCl pH 7.6, 1 mM EDTA pH 8.0, 165 mM NaCl, 0.5% NP-40), and thereafter, a western blot assay was performed to analyze the association by using the indicated antibodies. Western blot was performed as previously reported. Anti-β-actin and anti-Flag antibodies were purchased from Sigma. Anti-Myc antibody was purchased from Santa Cruz Biotechnology. Antibody against CREPT was produced in the laboratory.
To address whether PRTC could induce CREPT degradation, we examined the endogenous protein level of CREPT in Panc-1, AsPc-1 and MIA-PaCa-2 cells in the presence of different dosages of PRTC. […] Consistently, treatment with PRTC led to decreases in CREPT protein at different times (Figure 5B, S3A). […] To further visualize the degradation process, we stained the endogenous CREPT protein with an antibody against CREPT in the cells treated with FITC-labeled PRTC.
Figure S3. PRTC induces CREPT degradation. […]
A general note: A western blot detects proteins with antibodies after separation by electrophoresis.

Each structure is given as a SMILES string. “Also recorded” adds a separate entry of the source. Non-standard residues stand in square brackets, D forms with d. Residues, ends and D or L forms follow the SMILES beside them. Hyp = O=C(O)[C@@H]1C[C@@H](O)CN1; Ahx = NCCCCCC(=O)O

Consider `CC[C@H](C)[C@H](N)C(=O)N[C@@H](Cc1ccc(O)cc1)C(=O)N1C[C@H](O)C[C@H]1C(=O)N[C@@H](C)C(=O)N[C@@H](CC(C)C)C(=O)NCCCCCC(=O)N[C@@H](CCCCN)C(=O)N[C@@H](CC(=O)O)C(=O)N[C@H](C(=O)N[C@@H](CC(C)C)C(=O)N[C@@H](CO)C(=O)N[C@@H](CCC(=O)O)C(=O)N[C@@H](CCCCN)C(=O)N[C@@H](CCC(=O)O)C(=O)N[C@@H](CCCCN)C(=O)N[C@@H](CCCCN)C(=O)N[C@@H](CC(C)C)C(=O)N[C@@H](CCC(=O)O)C(=O)N[C@@H](CCC(=O)O)C(=O)N[C@@H](Cc1ccc(O)cc1)C(=O)N[C@@H](CCCCN)C(=O)N[C@@H](CCC(N)=O)C(=O)N[C@@H](CCCCN)C(=O)N[C@@H](CC(C)C)C(=O)N[C@@H](C)C(=O)N[C@@H](CCCNC(=N)N)C(=O)N[C@H](C(=O)N[C@@H](CCCNC(=N)N)C(=O)N[C@@H](CCCNC(=N)N)C(=O)N[C@@H](CCCNC(=N)N)C(=O)N[C@@H](CCCNC(=N)N)C(=O)N[C@@H](CCCCN)C(=O)O)C(C)C)C(C)C` [PRTC] (H-IY[Hyp]AL[Ahx]KDVLSEKEKKLEEYKQKLARVRRRRK-OH; N-terminus and C-terminus assumed), for which, in the series with Panc-1 cells, the “cell movement (wound healing)” value is listed as “decreased cell movement”. The “secondary structure by CD spectrum” value in series [1] is on record as “α-helix structure”. Moreover, the Helicity in series [1] (190 to 260 nm, average of three scans, calculated by CDNN 2.1) is given as 50.1%. The colony formation result in the series on AsPc-1 cells and in the series with MIA PaCa-2 cells was “fewer colonies” each time. In addition, the toxicity result in series [2] is recorded as “relatively low; also recorded: no toxicity”. Moreover, the “CREPT protein level upon different dosages” value in series [3] is “dramatically decreased”.

The values above are taken from publication PMC7069095, “A cell-permeable peptide-based PROTAC against the oncoprotein CREPT proficiently inhibits pancreatic cancer” (Theranostics, 2020).
